The record followed here is BindingDB's records for doi:10.1016/j.bmcl.2010.08.042 (Vanderbilt University Medical Center, 2010).

This experiment has as its target T1, Muscarinic acetylcholine receptor M1 (Homo sapiens, UniProt P11229).
T1 sequence (P11229 whole entry): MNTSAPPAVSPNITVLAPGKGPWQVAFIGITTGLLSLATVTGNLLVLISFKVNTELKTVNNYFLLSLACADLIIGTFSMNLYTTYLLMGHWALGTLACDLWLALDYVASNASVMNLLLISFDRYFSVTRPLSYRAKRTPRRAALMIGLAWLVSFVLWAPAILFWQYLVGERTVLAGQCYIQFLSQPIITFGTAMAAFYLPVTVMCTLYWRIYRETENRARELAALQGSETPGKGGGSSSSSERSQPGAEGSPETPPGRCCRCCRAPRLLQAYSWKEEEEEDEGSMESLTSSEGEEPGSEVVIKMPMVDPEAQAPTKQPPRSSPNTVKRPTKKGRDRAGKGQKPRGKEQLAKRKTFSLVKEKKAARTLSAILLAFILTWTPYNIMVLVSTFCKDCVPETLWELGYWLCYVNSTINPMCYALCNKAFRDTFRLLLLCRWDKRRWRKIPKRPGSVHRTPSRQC
The experiment can be described thus: Positive allosteric modulation of muscarinic M1 receptor expressed in CHO cells assessed as effect on acetylcholine-induced intracellular calcium mobilization after 1 hr by FLIPR assay. In general terms: A change in cytosolic calcium serves as a functional read-out for many receptors and channels.

Structures are written as SMILES.

One may read the EC50 as the concentration at which the effect is half-maximal. For the compound `O=C1C(=O)N(Cc2ccc(Br)cc2)c2ccccc21`, the EC50 was 6.1 µM.
